Measurements taken from patent US20250275959A1, “COMPOUNDS AND METHODS OF THEIR USE” (LEXICON PHARMACEUTICALS, INC., priority 2024, published 2025).

Each compound was assayed against hACSL5 (Homo sapiens (Human), UniProt Q9ULC5) (assay: Human ACSL5 coupled enzyme Amplex Red assay). Details: read-out: hACSL5 IC50.
Type: biochemical
Description: Human ACSL5 (33-683) was cloned with a C-terminal 6 His tag and expressed in insect cells (sf9) as per standard insect cell expression protocols. Human ACSL5 was enriched by affinity nickel affinity chromatography followed by Superdex S200 gel filtration column equilibrated in 20 mM HEPES pH 7.8, 500 mM NaCl, 1 mM TCEP, 5% glycerol, 0.1% Triton X^100.
Inhibition of ACSL5 enzyme activity was monitored with a coupled enzyme Amplex Red assay.
The assay is carried out in 384-well microtiterplates. In a total volume of […], compounds are preincubated with 20 nM ACSL5, in a buffer containing 150 mM MOPS-NaOH, 12 mM MgCl2, 0.03% (v/v) Triton X-100, 2.79 U mL-1 Peroxidase and 24 U mL-1 Acyl-CoA Oxidase (pH 7.6). The reaction is started by the addition of substrate and co factors (25 μM oleate, 30 μM CoA, 1 mM ATP and 50 μM Amplex Red) and the fluorescence detected after 10 minutes at 25° C. with a fluorescence reader (BMG-Fluostar; BMG-Technologies) using an excitation wavelength of 535 nm and an emission wavelength of 590 nm.
Concentration-response titration points for each compound tested were filled to the Hill equation yielding concentrations of half maximal inhibition […] and maximal inhibition values.

Chain of hACSL5 (Q9ULC5 33-683): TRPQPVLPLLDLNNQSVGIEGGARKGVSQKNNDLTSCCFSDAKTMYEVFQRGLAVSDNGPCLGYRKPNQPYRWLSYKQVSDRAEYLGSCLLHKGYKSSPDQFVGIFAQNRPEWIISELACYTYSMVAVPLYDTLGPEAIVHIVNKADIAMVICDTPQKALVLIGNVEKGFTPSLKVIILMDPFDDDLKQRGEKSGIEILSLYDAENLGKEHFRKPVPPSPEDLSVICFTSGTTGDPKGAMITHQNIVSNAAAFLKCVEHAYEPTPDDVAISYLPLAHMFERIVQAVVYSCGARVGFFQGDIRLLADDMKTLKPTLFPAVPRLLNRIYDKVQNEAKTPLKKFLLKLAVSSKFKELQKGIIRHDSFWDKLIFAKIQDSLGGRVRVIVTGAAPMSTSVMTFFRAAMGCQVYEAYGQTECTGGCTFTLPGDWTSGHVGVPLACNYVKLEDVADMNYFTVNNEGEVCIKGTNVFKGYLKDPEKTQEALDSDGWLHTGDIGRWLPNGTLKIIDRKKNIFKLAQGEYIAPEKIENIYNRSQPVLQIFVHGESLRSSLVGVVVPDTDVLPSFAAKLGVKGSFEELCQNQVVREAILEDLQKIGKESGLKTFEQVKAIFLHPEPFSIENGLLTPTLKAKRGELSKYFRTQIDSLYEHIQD

Structure (SMILES) | IC50
CC(Oc1ccc(C(=O)NS(=O)(=O)N2CCN(C)CC2)c(Cl)c1Cl)c1cccc(Oc2ccccc2)c1 (racemic) [rac-(R)-2,3-dichloro-N-((4-methylpiperazin-1-yl)sulfonyl)-4-(1-(3-phenoxyphenyl)ethoxy)benzamide] | < 100 nM
CC(Oc1ccc(C(=O)NS(=O)(=O)CCN)c(Cl)c1Cl)c1cccc(Oc2ccccc2)c1 (racemic) [rac-(R)-N-((2-aminoethyl)sulfonyl)-2,3-dichloro-4-(1-(3-phenoxyphenyl)ethoxy)benzamide] | > 500 nM
CC(Oc1ccc(C(=O)NS(=O)(=O)CCN)cc1C(F)(F)F)c1cccc(Oc2ccccc2)c1 (racemic) [rac-(R)-N-((2-aminoethyl)sulfonyl)-4-(1-(3-phenoxyphenyl)ethoxy)-3-(trifluoromethyl)benzamide] | 100 to 500 nM
CC(Oc1ccc(C(=O)NS(=O)(=O)c2ccc(CN)cc2)c(Cl)c1Cl)c1cccc(Oc2ccccc2)c1 (racemic) [rac-(R)-N-((4-(aminomethyl)phenyl)sulfonyl)-2,3-dichloro-4-(1-(3-phenoxyphenyl)ethoxy)benzamide] | < 100 nM
Cc1cc(C(=O)NS(=O)(=O)c2ccc(CN)cc2)ccc1OC(C)c1cccc(Oc2ccccc2)c1 (racemic) [rac-(R)-N-((4-(aminomethyl)phenyl)sulfonyl)-3-methyl-4-(1-(3-phenoxyphenyl)ethoxy)benzamide] | < 100 nM
CC[C@@H](Oc1ccc(C(=O)NS(=O)(=O)N2CCC(OC3CCN(C)CC3)CC2)c(F)c1F)c1cc(OC2CC(OC)C2)ccn1 (stereo partly drawn) [2,3-difluoro-4-((R)-1-(4-((1R,3R)-3-methoxycyclobutoxy)pyridin-2-yl)propoxy)-N-((4-((1-methylpiperidin-4-yl)oxy)piperidin-1-yl)sulfonyl)benzamide] | > 500 nM
CC[C@@H](Oc1ccc(C(=O)NS(=O)(=O)N2CCN(C)CC2)c(F)c1F)c1cc(OC2CC(OC)C2)ccn1 (stereo partly drawn) [2,3-difluoro-4-((R)-1-(4-((1R,3R)-3-methoxycyclobutoxy)pyridin-2-yl)propoxy)-N-((4-methylpiperazin-1-yl)sulfonyl)benzamide] | > 500 nM
CC[C@@H](Oc1ccc(C(=O)NS(=O)(=O)c2ccc(O[C@@H]3CCCN(C)C3)cc2)c(F)c1F)c1ccc(Oc2ccccn2)cn1 [2,3-difluoro-N-((4-(((R)-1-methylpiperidin-3-yl)oxy)phenyl)sulfonyl)-4-((R)-1-(5-(pyridin-2-yloxy)pyridin-2-yl)propoxy)benzamide] | < 100 nM
CC[C@@H](Oc1ccc(C(=O)NS(=O)(=O)c2ccc(O[C@H]3CCCN(C)C3)cc2)c(F)c1F)c1ccc(Oc2ccccn2)cn1 [2,3-difluoro-N-((4-(((S)-1-methylpiperidin-3-yl)oxy)phenyl)sulfonyl)-4-((R)-1-(5-(pyridin-2-yloxy)pyridin-2-yl)propoxy)benzamide] | < 100 nM
CNCc1ccc(S(=O)(=O)NC(=O)c2ccc(OCc3cccc(Oc4ccccc4)c3)c(F)c2F)cc1 [2,3-difluoro-N-((4-((methylamino)methyl)phenyl)sulfonyl)-4-((3-phenoxybenzyl)oxy)benzamide] | < 100 nM
CC[C@@H](Oc1ccc(C(=O)NS(=O)(=O)N2CC3CC(C2)N3C)c(F)c1F)c1ccc(Oc2ccccn2)cn1 [2,3-difluoro-N-((6-methyl-3,6-diazabicyclo[3.1.1]heptan-3-yl)sulfonyl)-4-((R)-1-(5-(pyridin-2-yloxy)pyridin-2-yl)propoxy)benzamide] | < 100 nM
CC[C@@H](Oc1ccc(C(=O)NS(=O)(=O)N2CC3CCC(C2)N3C)c(F)c1F)c1ccc(Oc2ccccn2)cn1 [2,3-difluoro-N-((8-methyl-3,8-diazabicyclo[3.2.1]octan-3-yl)sulfonyl)-4-((R)-1-(5-(pyridin-2-yloxy)pyridin-2-yl)propoxy)benzamide] | < 100 nM
CCOc1ccc(C(C)Oc2ccc(C(=O)NS(=O)(=O)N3CCN(C)CC3)c(F)c2F)nc1 (centres unmarked) [4-(1-(5-ethoxypyridin-2-yl)ethoxy)-2,3-difluoro-N-((4-methylpiperazin-1-yl)sulfonyl)benzamide] | > 500 nM
CCOc1ccc(C(C)Oc2ccc(C(=O)NS(=O)(=O)C3CCNCC3)c(F)c2F)nc1 (centres unmarked) [4-(1-(5-ethoxypyridin-2-yl)ethoxy)-2,3-difluoro-N-(piperidin-4-ylsulfonyl)benzamide] | > 500 nM
CCOc1ccc(C(CC)Oc2ccc(C(=O)NS(=O)(=O)CCCN3CCOCC3)cc2C(F)(F)F)nc1 (centres unmarked) [4-(1-(5-ethoxypyridin-2-yl)propoxy)-N-((3-morpholinopropyl)sulfonyl)-3-(trifluoromethyl)benzamide] | 100 to 500 nM
CCOc1ccc(C(CC)Oc2ccc(C(=O)NS(=O)(=O)c3ccc(OCCNC)cc3)cc2C(F)(F)F)nc1 (centres unmarked) [4-(1-(5-ethoxypyridin-2-yl)propoxy)-N-((4-(2-(methylamino)ethoxy)phenyl)sulfonyl)-3-(trifluoromethyl)benzamide] | < 100 nM
CC[C@@H](Oc1ccc(C(=O)NS(=O)(=O)c2ccc(O[C@@H]3CCCN(C)C3)cc2)c(F)c1F)c1ccc(OCC2CC2)cn1 [4-((R)-1-(5-(cyclopropylmethoxy)pyridin-2-yl)propoxy)-2,3-difluoro-N-((4-(((R)-1-methylpiperidin-3-yl)oxy)phenyl)sulfonyl)benzamide] | 100 to 500 nM
CC[C@@H](Oc1ccc(C(=O)NS(=O)(=O)c2ccc(O[C@H]3CCCN(C)C3)cc2)c(F)c1F)c1ccc(OCC2CC2)cn1 [4-((R)-1-(5-(cyclopropylmethoxy)pyridin-2-yl)propoxy)-2,3-difluoro-N-((4-(((S)-1-methylpiperidin-3-yl)oxy)phenyl)sulfonyl)benzamide] | < 100 nM
CC[C@@H](Oc1ccc(C(=O)NS(=O)(=O)c2ccc(OC3CCN(C)CC3)cc2)c(F)c1F)c1ccc(OCCOC)cn1 [(R)-2,3-difluoro-4-(1-(5-(2-methoxyethoxy)pyridin-2-yl)propoxy)-N-((4-((1-methylpiperidin-4-yl)oxy)phenyl)sulfonyl)benzamide] | > 500 nM
CC[C@@H](Oc1ccc(C(=O)NS(=O)(=O)N2CCC(OC3CCN(C)CC3)CC2)c(F)c1F)c1ccc(OCCOC)cn1 [(R)-2,3-difluoro-4-(1-(5-(2-methoxyethoxy)pyridin-2-yl)propoxy)-N-((4-((1-methylpiperidin-4-yl)oxy)piperidin-1-yl)sulfonyl)benzamide] | > 500 nM
CC[C@@H](Oc1ccc(C(=O)NS(=O)(=O)N2CC(OC3CCN(C)CC3)C2)c(F)c1F)c1ccc(Oc2ccccn2)cn1 [(R)-2,3-difluoro-N-((3-((1-methylpiperidin-4-yl)oxy)azetidin-1-yl)sulfonyl)-4-(1-(5-(pyridin-2-yloxy)pyridin-2-yl)propoxy)benzamide] | 100 to 500 nM
CC[C@@H](Oc1ccc(C(=O)NS(=O)(=O)N2CCN(CCCF)CC2)c(F)c1F)c1ccc(Oc2ccccn2)cn1 [(R)-2,3-difluoro-N-((4-(3-fluoropropyl)piperazin-1-yl)sulfonyl)-4-(1-(5-(pyridin-2-yloxy)pyridin-2-yl)propoxy)benzamide] | < 100 nM
CC[C@@H](Oc1ccc(C(=O)NS(=O)(=O)N2CCC(OC3CN(C)C3)CC2)c(F)c1F)c1ccc(Oc2ccccn2)cn1 [(R)-2,3-difluoro-N-((4-((1-methylazetidin-3-yl)oxy)piperidin-1-yl)sulfonyl)-4-(1-(5-(pyridin-2-yloxy)pyridin-2-yl)propoxy)benzamide] | < 100 nM
CC[C@@H](Oc1ccc(C(=O)NS(=O)(=O)N2CC3=C(CN(C)C3)C2)c(F)c1F)c1ccc(Oc2ccccn2)cn1 [(R)-2,3-difluoro-N-((5-methyl-3,4,5,6-tetrahydropyrrolo[3,4-c]pyrrol-2(1H)-yl)sulfonyl)-4-(1-(5-(pyridin-2-yloxy)pyridin-2-yl)propoxy)benzamide] | 100 to 500 nM
CC[C@@H](Oc1ccc(C(=O)NS(=O)(=O)N2CC3(CN(C)C3)C2)c(F)c1F)c1ccc(Oc2ccccn2)cn1 [(R)-2,3-difluoro-N-((6-methyl-2,6-diazaspiro[3.3]heptan-2-yl)sulfonyl)-4-(1-(5-(pyridin-2-yloxy)pyridin-2-yl)propoxy)benzamide] | 100 to 500 nM
CC[C@@H](Oc1ccc(C(=O)NS(=O)(=O)N2CC(OC3CCN(C)CC3)C2)c(F)c1F)c1ccc(OCC2CC2)cn1 [(R)-4-(1-(5-(cyclopropylmethoxy)pyridin-2-yl)propoxy)-2,3-difluoro-N-((3-((1-methylpiperidin-4-yl)oxy)azetidin-1-yl)sulfonyl)benzamide] | 100 to 500 nM
CC[C@@H](Oc1ccc(C(=O)NS(=O)(=O)c2ccc(OCCNC)cc2)c(F)c1F)c1ccc(OCC2CC2)cn1 [(R)-4-(1-(5-(cyclopropylmethoxy)pyridin-2-yl)propoxy)-2,3-difluoro-N-((4-(2-(methylamino)ethoxy)phenyl)sulfonyl)benzamide] | < 100 nM
CC[C@@H](Oc1ccc(C(=O)NS(=O)(=O)N2CCC(OCCN3CCCC3)CC2)c(F)c1F)c1ccc(OCC2CC2)cn1 [(R)-4-(1-(5-(cyclopropylmethoxy)pyridin-2-yl)propoxy)-2,3-difluoro-N-((4-(2-(pyrrolidin-1-yl)ethoxy)piperidin-1-yl)sulfonyl)benzamide] | 100 to 500 nM
CC[C@@H](Oc1ccc(C(=O)NS(=O)(=O)N2CCN(CCCF)CC2)c(F)c1F)c1ccc(OCC2CC2)cn1 [(R)-4-(1-(5-(cyclopropylmethoxy)pyridin-2-yl)propoxy)-2,3-difluoro-N-((4-(3-fluoropropyl)piperazin-1-yl)sulfonyl)benzamide] | < 100 nM
